Entries after “also recorded” stand apart in the source; their conditions may differ.
Key:
[1] = system: dendritic cells; settings: Non-Patent Document 2; cited from earlier work
[2] = system: bone marrow-derived dendritic cells (FL-DCs); assay: Binding of biotinylated peptide/streptavidin complex to dendritic cells, flow cytometry (Test Example 7); format: cell-based, mouse; settings: 0.6 μg complex, PE-labeled streptavidin, FL-DCs and spleen-derived dendritic cells
Description: A biotinylated peptide/streptavidin complex was produced in the same manner as in Test Example 4 above using each of the peptide consisting of the amino acid sequence of FL4 identified in Test Example 1 above and its scramble peptide (amino acid sequence: YRSIVKA; SEQ ID NO: 38).
Each of various test cells and 0.6 μg of each of various complexes were mixed, and then the binding of each of various complexes to cells was evaluated by flow cytometric analysis. Cells used were 1×10^5 FL-DCs, 1×10^6 CD11c positive cells purified from the spleen using MACS (the spleen-derived dendritic cells) and 1×10^6 murine splenocytes.

[3] = system: NeutrAvidin-specific antibody; assay: NeutrAvidin-specific antibody titer in sera of mice given biotinylated peptide/NeutrAvidin complex, ELISA (Test Example 12); format: in vivo, mouse; settings: 5 μg as NeutrAvidin, base of tail Day 0 and Day 10, serum Day 17, IgG
Description: A biotinylated peptide was synthesized by linking the N-terminus of each of FL4 identified in Test Example 1, a peptide Mut 1 (amino acid sequence: ASYKAIR (SEQ ID NO: 2)) derived from FL4 of which the 1st amino acid residue was substituted by an alanine residue, a peptide Mut 2 (amino acid sequence: VAYKAIR (SEQ ID NO: 3)) derived from FL4 of which the 2nd amino acid residue was substituted by an alanine residue, a peptide Mut 3 (amino acid sequence: VSAKAIR, SEQ ID NO: 43) derived from FL4 of which the 3rd amino acid residue was substituted by an alanine residue, and a peptide Mut 4 (amino acid sequence: VSYKAAR, SEQ ID NO: 44) derived from FL4 of which the […] amino acid residue was substituted by an alanine residue to biotin. Subsequently, a biotinylated peptide/NeutrAvidin complex was produced by mixing each of the obtained biotinylated peptides and NeutrAvidin.
50 μL of physiological saline containing 5 μg of the complex or NeutrAvidin in terms of NeutrAvidin amount was administered into the base of the tail of each 7-week old C57BL/6 mouse on Day 0 and Day 10, and blood was collected on Day 17. As a control, a test was also carried out in the case where only physiological saline was administered in the same manner Meanwhile, in these tests, five mice in each group were used.
Sera were obtained from the blood collected on Day 17 and NeutrAvidin-specific antibody titer (IgG) in the sera was measured by ELISA. In FIG. 18, “NA” refers to the case of administration of NeutrAvidin, and “NA-FL4” refers to the case of administration of the biotinylated FL4/NeutrAvidin complex. Other peptides are shown in the same display format. Further, in FIG. 18, “cont” refers to the case where physiological saline was administered.

[4] = system: CD4^+ T cells contained in splenocytes; assay: Binding of phage clones to CD4+ T cells contained in splenocytes, flow cytometry (Test Example 6); format: cell-based, mouse; settings: phage clone 1.6×10^10 pfu/mL, 1×10^5 splenocytes
Description: (§1) Specifically, 1×10^5 splenocytes collected from mice and 1.6×10^10 pfu/mL of each phage clone were mixed, and the biotinylated antibody to the phage was added. Further, streptavidin modified with a fluorescent dye was added, and the binding of the phage to splenocytes was evaluated by flow cytometric analysis.

[5] = system: mouse-derived dendritic cells (FL-DCs); assay: Binding of phage clones to mouse-derived dendritic cells by flow cytometric analysis (Test Example 1); format: cell-based; settings: phage clone displaying the peptide, 1.6×10^10 pfu/mL, 1×10^5 mouse-derived dendritic cells, flow cytometry with antibody against the phage
Description: Meanwhile, in the following test examples, unless otherwise indicated, as mouse-derived dendritic cells, dendritic cells (FL-DCs) that were obtained by culturing murine bone marrow cells in the presence of Flt3-L (final concentration 100 ng/ml) for 1 week to induce differentiation were used. In addition, in the following test examples, FL-DCs were analyzed in some cases separately for Plasmacytoid DCs (pDCs), CD11b positive dendritic cells (CD11b^+ DCs), and CD11b negative dendritic cells (CD11b^− DCs). Among the mouse-derived dendritic cells, pDCs is a group of CD11c positive and B220 positive cells; CD11b^+ DCs is a group of CD11c positive, B220 negative and CD11b positive cells among mouse-derived dendritic cells; CD11b^− DCs is a group of CD11c positive, B220 negative, and CD11b negative cells among mouse-derived dendritic cells.
Each of phages recovered by three panning operations was monocloned and amplified. 1×10^5 mouse-derived dendritic cells and 1.6×10^10 pfu/mL of each phage clone were mixed, and then the phage was assayed for the binding to dendritic cells by flow cytometric analysis using an antibody against the phage.
About 60 phage clones obtained were subjected to flow cytometric analysis as described above. As a result, 37 clones shown in Table 1 were identified as clones capable of binding to dendritic cells. […]

[6] = system: dendritic cells contained in splenocytes; assay: Binding of phage clones to dendritic cells contained in splenocytes, flow cytometry (Test Example 6); format: cell-based, mouse; settings: phage clone 1.6×10^10 pfu/mL, 1×10^5 splenocytes
Description: as §1

[7] = system: Clec9a; settings: Non-Patent Document 1; cited from earlier work
Sequence of Clec9a (Q8BRU4 106-238 limits assumed): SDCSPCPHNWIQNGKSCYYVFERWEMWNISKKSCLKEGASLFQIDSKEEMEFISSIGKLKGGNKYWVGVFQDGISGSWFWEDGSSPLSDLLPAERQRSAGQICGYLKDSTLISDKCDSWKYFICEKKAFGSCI

NWYLPWLGTNDW (NW peptide)
binding ability to dendritic cells [1]: high binding ability to dendritic cells

VSYKAIR (Amino acid sequence of motif sequence) [FL4, also tested as biotinylated complex]
binding ability of biotinylated peptide/streptavidin complex to dendritic cells [2]: equivalent to that of the peptide consisting of the amino acid sequence of FL8 | NeutrAvidin-specific antibody production [3]: excellent production ability | binding of phage clone to CD4+ T cells contained in splenocytes [4]: also bound to CD4^+ T cells contained in splenocytes | binding of phage clone to dendritic cells [5]: bound to all dendritic cells; also recorded: binding to bone marrow-derived dendritic cells was confirmed | binding of phage clone to dendritic cells contained in splenocytes [6]: bind to all dendritic cells contained in splenocytes; also recorded: equivalent to that of FL8

WPRFHSSVFHTH (WH peptide)
binding to Clec9a expressed on dendritic cells [7]: can selectively bind to Clec9a

From US11186618B2, “Dendritic-cell-targeted peptide, fusion peptide utilizing said peptide, and vaccine utilizing said fusion peptide” (The Research Foundation for Microbial Diseases of Osaka …, priority 2016, dated 2021)
